This passage reports IC50 results from ChEMBL document CHEMBL1134595, “Exploration of novel aryl binding sites of farnesyltransferase using molecular modeling and benzophenone-based farnesyltransferase inhibitors” (J Med Chem, 2001).

pIC50: −log10 of the molar value.

The target of the test is T1, Farnesyltransferase (Saccharomyces cerevisiae S288c, UniProt P22007+P29703).
T1 sequence (P29703 whole entry): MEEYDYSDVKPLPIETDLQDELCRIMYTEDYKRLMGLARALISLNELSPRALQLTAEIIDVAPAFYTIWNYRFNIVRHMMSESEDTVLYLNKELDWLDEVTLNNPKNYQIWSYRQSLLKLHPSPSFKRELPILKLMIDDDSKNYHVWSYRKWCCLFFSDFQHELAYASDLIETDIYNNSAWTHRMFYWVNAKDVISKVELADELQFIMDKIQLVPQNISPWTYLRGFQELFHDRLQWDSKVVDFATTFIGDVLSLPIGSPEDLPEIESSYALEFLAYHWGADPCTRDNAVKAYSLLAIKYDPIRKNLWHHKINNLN
T1 sequence (P22007 whole entry): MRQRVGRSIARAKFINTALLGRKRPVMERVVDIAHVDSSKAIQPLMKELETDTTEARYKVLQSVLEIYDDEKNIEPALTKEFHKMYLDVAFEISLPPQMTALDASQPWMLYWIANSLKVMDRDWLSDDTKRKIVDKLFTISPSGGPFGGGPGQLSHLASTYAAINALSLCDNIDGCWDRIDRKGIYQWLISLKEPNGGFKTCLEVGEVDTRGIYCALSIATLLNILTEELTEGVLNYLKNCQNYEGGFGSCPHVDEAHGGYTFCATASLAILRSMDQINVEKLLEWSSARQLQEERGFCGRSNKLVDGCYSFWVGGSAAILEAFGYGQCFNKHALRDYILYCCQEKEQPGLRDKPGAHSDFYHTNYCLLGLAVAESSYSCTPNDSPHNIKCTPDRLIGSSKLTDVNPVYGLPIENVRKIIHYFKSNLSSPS
In words: Inhibitory activity against yeast farnesyltransferase. Type of test: protein-complex assay.
By pIC50 is commonly meant the negative decadic logarithm of the IC50, by convention in mol/L. The low end stands for a high IC50, the high end for a low IC50. Turning to `Cc1ccc(CC(=O)Nc2ccc(NC(=O)/C=C/c3ccc(-c4ccc(Cl)cc4)o3)cc2C(=O)c2ccccc2)cc1`, the pIC50 was 5.20.
With `CSCC[C@H](NC(=O)c1ccc(COCc2ccc(-c3ccccc3)o2)cc1-c1ccccc1)C(=O)O`, the pIC50 was 8.22.
Regarding `Cc1ccc(CC(=O)Nc2ccc(NC(=O)CCCc3ccccc3)cc2C(=O)c2ccccc2)cc1`, the pIC50 was 6.28.
Compound `CSCC[C@H](NC(=O)c1ccc(CN(Cc2ccccc2)c2cccnc2)cc1-c1ccccc1C)C(=O)O` had a pIC50 of 10.00.
With `Cc1ccc(CC(=O)Nc2ccc(NC(=O)c3ccccc3)cc2C(=O)c2ccccc2)cc1`, the pIC50 is 5.22.
In turn, `CCC(C)[C@@H](CN(CC(=O)N[C@@H](CCSC)C(=O)O)Cc1cccc2ccccc12)NC(=O)CSCc1ccc(C#N)cc1` (some centres undefined) showed a pIC50 of 8.27. Against the preceding compound, the pIC50 is 3.05 log units higher.
The same measure for `CCC(C)[C@@H](CN(CC(=O)N[C@@H](CCSC)C(=O)O)Cc1cccc2ccccc12)NC(=O)CC1CN(Cc2ccc(C#N)cc2)C=N1` (some centres undefined): 7.92.
Consider `Cc1ccc(CC(=O)Nc2ccc(NC(=O)/C=C/c3csc(-c4ccc([N+](=O)[O-])cc4)n3)cc2C(=O)c2ccccc2)cc1`, for which the pIC50 was 6.34.
In turn, `Cc1ccc(CC(=O)Nc2ccc(NC(=O)CCc3ccccc3)cc2C(=O)c2ccccc2)cc1` had a pIC50 of 5.70. This pIC50 is 0.64 log units lower than that of the compound before.
Regarding `Cc1ccc(CC(=O)Nc2ccc(NC(=O)CCCCc3ccccc3)cc2C(=O)c2ccccc2)cc1`, the pIC50 was 6.41.
The same measure for `Cc1ccc(CC(=O)Nc2ccc(NC(=O)/C=C/c3ccc(-c4ccc(Br)cc4)o3)cc2C(=O)c2ccccc2)cc1`: 6.03.
`Cc1ccc(CC(=O)Nc2ccc(NC(=O)Cc3ccccc3)cc2C(=O)c2ccccc2)cc1` gave a pIC50 of 5.70.
`Cc1ccc(CC(=O)Nc2ccc(NC(=O)CCCCCc3ccccc3)cc2C(=O)c2ccccc2)cc1` showed a pIC50 of 5.96.
`CSCC[C@H](NC(=O)c1ccc(COc2cccnc2)cc1-c1ccccc1C)C(=O)O` gave a negative logarithm of the IC50 (pIC50) of 9.40. Compared with the last compound, the pIC50 is 3.44 log units higher.
